According to article PMC7280082 (Acta Pharmaceutica Sinica. B, 2019):

Experiments:
[1] = tested on: HIV-1 Y181C mutant strain; experiment: microbe, parasite or virus in culture; type: cell-based; details: for SI Y181C: CC50/EC50; for EC50: Human immunodeficiency virus 1, MT4, read-out: EC50 Y181C; for RF Y181C: ratio of EC50 (resistant viral strain)/EC50 (wild-type viral strain)
[2] = tested on: HIV-1 F227L + V106A double-mutant strain; experiment: microbe, parasite or virus in culture; type: cell-based; details: for SI F227L + V106A: CC50/EC50; for EC50: Human immunodeficiency virus 1, MT4, read-out: EC50 F227L + V106A; for RF F227L + V106A: ratio of EC50 (resistant viral strain)/EC50 (wild-type viral strain)
[3] = tested on: HIV-1 K103N mutant strain; experiment: microbe, parasite or virus in culture; type: cell-based; details: for SI K103N: CC50/EC50; for EC50: Human immunodeficiency virus 1, MT4, read-out: EC50 K103N; for RF K103N: ratio of EC50 (resistant viral strain)/EC50 (wild-type viral strain)
HIV-2 strain (ROD) = experiment: Anti-HIV-2; type: cell-based; details: for EC50: Human immunodeficiency virus 2, MT4, read-out: EC50 ROD; for SI ROD: ratio of CC50/EC50
[4] = tested on: HIV-1 L100I mutant strain; experiment: microbe, parasite or virus in culture; type: cell-based; details: for SI L100I: CC50/EC50; for EC50: Human immunodeficiency virus 1, MT4, read-out: EC50 L100I; for RF L100I: ratio of EC50 (resistant viral strain)/EC50 (wild-type viral strain)
WT HIV-1 (IIIB) = experiment: microbe, parasite or virus in culture; type: cell-based; details: for EC50: Human immunodeficiency virus 1, IIIB, MT4, read-out: EC50 IIIB; for SI IIIB: ratio of CC50/EC50
WT HIV-1 RT = WT HIV-1 RT (Human immunodeficiency virus type 1 group M subtype B, UniProt P03366); experiment: Recombinant HIV-1 RT inhibitory assay; type: biochemical
[5] = Cytotoxicity in mock-infected MT-4 cell cultures, MTT method; details: human, mock-infected MT-4 cells
[6] = tested on: HIV-1 E138K mutant strain; experiment: microbe, parasite or virus in culture; type: cell-based; details: for SI E138K: CC50/EC50; for EC50: Human immunodeficiency virus 1, MT4, read-out: EC50 E138K; for RF E138K: ratio of EC50 (resistant viral strain)/EC50 (wild-type viral strain)
[7] = tested on: HIV-1 Y188L mutant strain; experiment: microbe, parasite or virus in culture; type: cell-based; details: for SI Y188L: CC50/EC50; for EC50: Human immunodeficiency virus 1, MT4, read-out: EC50 Y188L; for RF Y188L: ratio of EC50 (resistant viral strain)/EC50 (wild-type viral strain)
[8] = tested on: HIV-1 RES056 (K103N + Y181C) double-mutant strain; experiment: microbe, parasite or virus in culture; type: cell-based; details: for SI RES056: CC50/EC50; for EC50: Human immunodeficiency virus 1, MT4, read-out: EC50 RES056; for RF RES056: ratio of EC50 (resistant viral strain)/EC50 (wild-type viral strain)

SMILES	SI Y181C [1]	EC50 [1] [µM]	RF Y181C [1]	SI F227L + V106A [2]	EC50 [2] [µM]	RF F227L + V106A [2]	SI K103N [3]	EC50 [3] [µM]	RF K103N [3]	EC50 (HIV-2 strain (ROD)) [µM]	SI ROD (HIV-2 strain (ROD))	SI L100I [4]	EC50 [4] [µM]	RF L100I [4]	EC50 (WT HIV-1 (IIIB)) [µM]	SI IIIB (WT HIV-1 (IIIB))	IC50 (WT HIV-1 RT) [µM]	CC50 at 5 days [5] [µM]	SI E138K [6]	EC50 [6] [µM]	further results
Cc1cc(-c2ccsc2)cc(C)c1Oc1nc(NC2CCN(Cc3ccc(S(N)(=O)=O)cc3)CC2)nc2ccsc12 [Compound 17, 4-((4-((4-(2,6-Dimethyl-4-(thiophen-3-yl)phenoxy)thieno[3,2-d]pyrimidin-2-yl)amino)piperidin-1-yl)methyl)benzenesulfonamide]	245	0.0632 ± 0.0161	2.0	272	0.0568 ± 0.00385	1.8	865	0.0179 ± 0.00151	0.6	4.8 ± 0.916	3	203	0.076 ± 0.0172	2.4	0.0316 ± 0.0177	489	0.167 ± 0.014	15.4 ± 5.86	295	0.0525 ± 0.0113	RF E138K [6]: 1.7; SI Y188L [7]: 249; EC50 [7]: 0.062 ± 0.00583 µM; RF Y188L [7]: 2.0; SI RES056 [8]: 17; EC50 [8]: 0.932 ± 0.0884 µM; RF RES056 [8]: 29.5
Cc1cc(-c2ccccc2)cc(C)c1Oc1nc(NC2CCN(Cc3ccc(S(N)(=O)=O)cc3)CC2)nc2ccsc12 [Compound 19, 4-((4-((4-((3,5-Dimethyl-[1,1′-biphenyl]-4-yl)oxy)thieno[3,2-d]pyrimidin-2-yl)amino)piperidin-1-yl)methyl)benzenesulfonamide]	127	0.167 ± 0.0245	3.8	106	0.2 ± 0.0104	4.6	356	0.0599 ± 0.00601	1.4	6.13 ± 0.272	3	62	0.344 ± 0.117	7.9	0.0438 ± 0.0156	487	0.164 ± 0.005	21.3 ± 1.26	200	0.107 ± 0.0188	RF E138K [6]: 2.4; SI Y188L [7]: 176; EC50 [7]: 0.121 ± 0.00919 µM; RF Y188L [7]: 2.8; SI RES056 [8]: 12; EC50 [8]: 1.71 ± 0.473 µM; RF RES056 [8]: 39.1
Cc1cc(-c2ccccc2)cc(C)c1Oc1nc(NC2CCN(Cc3ccc(C(N)=O)cc3)CC2)nc2ccsc12 [Compound 20, 4-((4-((4-((3,5-Dimethyl-[1,1′-biphenyl]-4-yl)oxy)thieno[3,2-d]pyrimidin-2-yl)amino)piperidin-1-yl)methyl)benzamide]	89	0.196 ± 0.0546	4.1	44	0.395 ± 0.00514	8.3	171	0.102 ± 0.0025	2.1	3.84 ± 1.77	5	42	0.416 ± 0.0879	8.7	0.0477 ± 0.0118	367	0.161 ± 0.014	17.5 ± 6.18	120	0.146 ± 0.0125	RF E138K [6]: 3.1; SI Y188L [7]: 85; EC50 [7]: 0.205 ± 0.0136 µM; RF Y188L [7]: 4.3; SI RES056 [8]: 10; EC50 [8]: 1.733 ± 0.00551 µM; RF RES056 [8]: 36.3
COc1ccc(-c2cc(C)c(Oc3nc(NC4CCN(Cc5ccc(S(N)(=O)=O)cc5)CC4)nc4ccsc34)c(C)c2)cc1 [Compound 21, 4-((4-((4-((4′-Methoxy-3,5-dimethyl-[1,1′-biphenyl]-4-yl)oxy)thieno[3,2-d]pyrimidin-2-yl)amino)piperidin-1-yl)methyl)benzenesulfonamide]	105	0.157 ± 0.00561	2.6	136	0.122 ± 0.0599	2.0	289	0.0576 ± 0.00067	0.9	> 16.6	<1	98	0.169 ± 0.00291	2.8	0.0611 ± 0.0103	272	0.268 ± 0.052	16.6 ± 4.65	145	0.114 ± 0.0092	RF E138K [6]: 1.9; SI Y188L [7]: 114; EC50 [7]: 0.146 ± 0.0447 µM; RF Y188L [7]: 2.4; SI RES056 [8]: 11; EC50 [8]: 1.56 ± 1.28 µM; RF RES056 [8]: 25.6
COc1ccc(-c2cc(C)c(Oc3nc(NC4CCN(Cc5ccc(C(N)=O)cc5)CC4)nc4ccsc34)c(C)c2)cc1 [Compound 22, 4-((4-((4-((4′-Methoxy-3,5-dimethyl-[1,1′-biphenyl]-4-yl)oxy)thieno[3,2-d]pyrimidin-2-yl)amino)piperidin-1-yl)methyl)benzamide]	85	0.158 ± 0.0273	3.0	45	0.297 ± 0.0398	5.7	230	0.0584 ± 0.00714	1.1	5.04 ± 0.685	3	50	0.268 ± 0.103	5.1	0.0526 ± 0.0114	256	0.233 ± 0.028	13.4 ± 5.94	90	0.149 ± 0.042	RF E138K [6]: 2.8; SI Y188L [7]: 122; EC50 [7]: 0.11 ± 0.00357 µM; RF Y188L [7]: 2.1; SI RES056 [8]: 12; EC50 [8]: 1.12 ± 0.353 µM; RF RES056 [8]: 21.4
Cc1cc(-c2ccc(F)cc2)cc(C)c1Oc1nc(NC2CCN(Cc3ccc(S(N)(=O)=O)cc3)CC2)nc2ccsc12 [Compound 23, 4-((4-((4-((4′-Fluoro-3,5-dimethyl-[1,1′-biphenyl]-4-yl)oxy)thieno[3,2-d]pyrimidin-2-yl)amino)piperidin-1-yl)methyl)benzenesulfonamide]	377	0.0448 ± 0.00526	4.0	363	0.0466 ± 0.0155	4.1	1441	0.0117 ± 0.00103	1.0	3.28 ± 1.26	5	372	0.0454 ± 0.00526	4.0	0.0113 ± 0.00207	1492	0.211 ± 0.015	16.9 ± 4.77	547	0.0309 ± 0.00526	RF E138K [6]: 2.7; SI Y188L [7]: 326; EC50 [7]: 0.0518 ± 0.00847 µM; RF Y188L [7]: 4.6; SI RES056 [8]: 43; EC50 [8]: 0.388 ± 0.0762 µM; RF RES056 [8]: 34.3
Cc1cc(-c2ccc(F)cc2)cc(C)c1Oc1nc(NC2CCN(Cc3ccc(C(N)=O)cc3)CC2)nc2ccsc12 [Compound 24, 4-((4-((4-((4′-Fluoro-3,5-dimethyl-[1,1′-biphenyl]-4-yl)oxy)thieno[3,2-d]pyrimidin-2-yl)amino)piperidin-1-yl)methyl)benzamide]	189	0.0361 ± 0.00121	2.8	120	0.0566 ± 0.0137	4.4	578	0.0117 ± 0.00109	0.9	≥ 5.66	<1	111	0.0611 ± 0.00935	4.8	0.0128 ± 0.00273	532	0.171 ± 0.01	6.8 ± 3.13	195	0.0348 ± 0.0106	RF E138K [6]: 2.7; SI Y188L [7]: 132; EC50 [7]: 0.0514 ± 0.0096 µM; RF Y188L [7]: 4.0; SI RES056 [8]: 12; EC50 [8]: 0.575 ± 0.12 µM; RF RES056 [8]: 44.9
Cc1cc(-c2ccc(C#N)cc2)cc(C)c1Oc1nc(NC2CCN(Cc3ccc(S(N)(=O)=O)cc3)CC2)nc2ccsc12 [Compound 25, 4-((4-((4-((4′-Cyano-3,5-dimethyl-[1,1′-biphenyl]-4-yl)oxy)thieno[3,2-d]pyrimidin-2-yl)amino)piperidin-1-yl)methyl)benzenesulfonamide]	173	0.0308 ± 0.00011	1.8	89	0.0599 ± 0.0102	3.5	403	0.0132 ± 0.00033	0.8	5.56 ± 0.0423	1	194	0.0274 ± 0.00441	1.6	0.017 ± 0.00578	312	0.288 ± 0.026	5.31 ± 2.56	120	0.0444 ± 0.00362	RF E138K [6]: 2.6; SI Y188L [7]: 99; EC50 [7]: 0.0536 ± 0.0035 µM; RF Y188L [7]: 3.2; SI RES056 [8]: 51; EC50 [8]: 0.103 ± 0.00339 µM; RF RES056 [8]: 6.1
